Results as given in patent publication US20120251448A1, “Compounds for Use in the Detection of Neurodegenerative Diseases” (priority 2011, published 2012).
Read-outs that look alike come from different tables or passages of the source.

Columns and labels:
[1] = biological target: α-synuclein aggregates (Homo sapiens, UniProt P37840); test: in vitro competition binding assay with [3H] positive reference compound #1 on α-synuclein aggregates
Experimental: In order to assess relative binding affinities of the test compounds for aggregated α-synuclein, competition assays were set up with a radiolabeled molecule already known to bind to α-synuclein fibrils and non-radiolabeled test compounds. In order to induce its aggregation, α-synuclein was incubated in phosphate buffered saline (PBS, pH 7.4) at 37° C. for three days with shaking (1,400 rpm). Competitive binding assays were carried out in 12×75 mm borosilicate glass tubes. […] The mixture was incubated for 120 min at 37° C., and the bound and the free radioactivity were separated by vacuum filtration through Whatman GF/B filters using a Brandel M-24R cell harvester, followed by washing with PBS buffer three times. […] IC50 values were determined by a non-linear, least squares regression analysis.

[2] = system: amyloid-β peptide of Alzheimer's disease; test: binding affinity for amyloid-β peptide (data not shown)
[3] = competition against [3H] positive reference compound #1 (100-200 nM), 120 min at 37° C., PBS, Ki by Cheng-Prusoff from IC50

Row | SMILES | Ki [1, 3] [nM] | Ki [1] [nM] | binding affinity for the amyloid-β peptide [2]
1 | Oc1ccc(-c2nsc(-c3ccc(O)c(O)c3)n2)cc1O [SA-57] | 124 | – | –
2 | Oc1ccc(-c2cc(-c3ccc(O)c(O)c3)c(-c3ccc(O)c(O)c3)s2)cc1O [SA-61] | 3100 | – | –
3 | Oc1ccc(-c2cnc(-c3ccc(O)c(O)c3)s2)cc1O [SA-64] | – | 89 | does not show significant binding affinity
4 | Oc1ccc(-c2cn(-c3ccc(O)c(O)c3)nn2)cc1O [SA-68] | 697 | – | –
5 | Oc1ccc(-c2cnc(-c3ccc(O)c(O)c3)o2)cc1O [SA-70] | 659 | – | –

Continued, in another order:

Row | Ki [1, 3] [nM] | Ki [1] [nM] | SMILES | binding affinity for the amyloid-β peptide [2]
6 | 1640 | – | Oc1ccc(-c2nc3cc(O)c(O)cc3o2)cc1O [SA-54] | –
7 | – | 370 | Oc1ccc(-c2nnc(-c3cc(O)c(O)cc3Br)o2)cc1O [SA-55] | –
8 | 466 | – | Oc1ccc(-c2nnc(-c3ccc(O)c(O)c3)o2)cc1O [SA-67] | –
